Measured values from ChEMBL document CHEMBL1139457, “Pyrrolo[1,3]benzothiazepine-based serotonin and dopamine receptor antagonists. Molecular modeling, further structure-activity relationship studies, and identification of novel atypical antipsychotic agents” (J Med Chem, 2004).
Where “and” joins values, the source holds several entries; their conditions need not be identical. Equal entries are not always repeated. Values belong to the compound of their own block, whether it stands above or below them. Calls of active or inactive are those of the source. The rule behind the calls is not given here.

How the values were obtained:
[1] = molecular target: T1, 5-hydroxytryptamine receptor 2A (Rattus norvegicus, UniProt P14842)
T1 sequence (P14842 whole entry): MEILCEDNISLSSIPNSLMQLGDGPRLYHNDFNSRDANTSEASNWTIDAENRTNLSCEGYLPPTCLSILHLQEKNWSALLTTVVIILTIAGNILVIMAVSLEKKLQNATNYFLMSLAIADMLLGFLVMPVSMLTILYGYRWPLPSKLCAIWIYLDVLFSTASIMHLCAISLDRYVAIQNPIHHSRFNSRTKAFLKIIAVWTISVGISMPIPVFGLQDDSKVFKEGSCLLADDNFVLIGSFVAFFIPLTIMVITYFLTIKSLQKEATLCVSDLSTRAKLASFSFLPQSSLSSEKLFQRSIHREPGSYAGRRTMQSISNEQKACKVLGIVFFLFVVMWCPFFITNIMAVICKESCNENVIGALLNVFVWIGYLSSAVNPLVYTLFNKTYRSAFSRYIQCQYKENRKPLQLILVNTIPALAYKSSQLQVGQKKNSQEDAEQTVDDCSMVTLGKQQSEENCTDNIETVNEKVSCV
Description: In vitro binding affinity towards 5-hydroxytryptamine 2A receptor in rat tissue homogenate using [3H]ketanserin as radioligand

D(3) dopamine receptor [2] = molecular target: T2, D(3) dopamine receptor (Rattus norvegicus, UniProt P19020); assay: biochemical; type: cell-based, Sf9
T2 sequence (P19020 whole entry): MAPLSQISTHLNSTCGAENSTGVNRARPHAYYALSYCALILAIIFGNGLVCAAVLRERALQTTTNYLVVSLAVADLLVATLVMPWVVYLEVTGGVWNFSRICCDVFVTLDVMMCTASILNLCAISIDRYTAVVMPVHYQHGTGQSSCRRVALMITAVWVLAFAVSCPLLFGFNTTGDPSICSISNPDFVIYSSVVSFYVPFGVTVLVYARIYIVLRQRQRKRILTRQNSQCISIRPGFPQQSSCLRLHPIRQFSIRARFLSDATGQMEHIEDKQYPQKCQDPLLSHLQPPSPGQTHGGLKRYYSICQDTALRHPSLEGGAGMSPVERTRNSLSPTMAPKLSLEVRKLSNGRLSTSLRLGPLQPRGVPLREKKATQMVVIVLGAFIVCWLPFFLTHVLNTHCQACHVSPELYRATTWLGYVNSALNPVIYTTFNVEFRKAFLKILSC
Description: (§1) In vitro binding affinity towards Dopamine receptor D3 in Sf9 cell membranes using [3H]7-OH-DPAT as radioligand

D(1A) dopamine receptor [3] = molecular target: T3, D(1A) dopamine receptor (Rattus norvegicus, UniProt P18901); design: species or system Tissue
T3 sequence (P18901 whole entry): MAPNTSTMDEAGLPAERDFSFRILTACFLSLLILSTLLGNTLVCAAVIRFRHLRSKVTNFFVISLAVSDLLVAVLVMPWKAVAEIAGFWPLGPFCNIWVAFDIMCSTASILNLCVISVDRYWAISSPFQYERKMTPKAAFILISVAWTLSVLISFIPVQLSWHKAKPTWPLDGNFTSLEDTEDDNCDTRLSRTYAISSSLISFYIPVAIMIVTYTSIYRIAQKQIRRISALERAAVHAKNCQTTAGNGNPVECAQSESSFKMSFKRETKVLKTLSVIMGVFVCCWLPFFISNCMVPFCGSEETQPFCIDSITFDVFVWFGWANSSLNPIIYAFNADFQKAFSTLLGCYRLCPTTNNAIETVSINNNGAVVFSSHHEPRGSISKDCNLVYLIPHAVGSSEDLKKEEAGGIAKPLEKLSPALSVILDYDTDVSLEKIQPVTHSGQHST
Description: In vitro binding affinity towards Dopamine receptor D1 in rat tissue homogenate using [3H]-SCH- 23390 as radioligand

[4] = molecular target: T1, 5-hydroxytryptamine receptor 2A; design: species or system Tissue
D(3) dopamine receptor [5] = molecular target: T2, D(3) dopamine receptor; type: cell-based; conditions: sf9
Description: as §1

D(1A) dopamine receptor [6] = molecular target: T3, D(1A) dopamine receptor; design: species or system Tissue; remark: listed apart in the source
D(2) dopamine receptor = D(2) dopamine receptor (Rattus norvegicus, UniProt P61169); design: species or system Tissue
Chain of D(2) dopamine receptor (P61169 whole entry): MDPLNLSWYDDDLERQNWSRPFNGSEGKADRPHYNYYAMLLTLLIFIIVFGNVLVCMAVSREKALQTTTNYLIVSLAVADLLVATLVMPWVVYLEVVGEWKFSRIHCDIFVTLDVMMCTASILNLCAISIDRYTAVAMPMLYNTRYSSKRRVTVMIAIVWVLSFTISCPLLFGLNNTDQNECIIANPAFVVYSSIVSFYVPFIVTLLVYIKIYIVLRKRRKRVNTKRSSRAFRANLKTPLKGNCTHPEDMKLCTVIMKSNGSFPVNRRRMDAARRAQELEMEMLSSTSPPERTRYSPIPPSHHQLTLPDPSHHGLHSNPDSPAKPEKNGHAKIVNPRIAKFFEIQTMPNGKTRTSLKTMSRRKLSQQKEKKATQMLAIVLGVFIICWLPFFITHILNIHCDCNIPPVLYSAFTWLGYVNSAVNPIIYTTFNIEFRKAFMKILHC

Mus musculus [7] = organism: Mus musculus
Rattus norvegicus [8] = organism: Rattus norvegicus; assay: animal or person; type: functional; conditions: po
Description: In vivo inhibition against catalepsy in rats after oral administration evaluated by metal bar

Mus musculus [9] = organism: Mus musculus; assay: animal or person; type: functional; conditions: po
Description: In vivo inhibitory activity against 5-MeO-DMT-Induced Head-Twitches in mouse after oral administration

Histamine H1 receptor = Histamine H1 receptor (Rattus norvegicus, UniProt P31390); assay: biochemical; type: tissue-based, Frontal cortex
Chain of Histamine H1 receptor (P31390 whole entry): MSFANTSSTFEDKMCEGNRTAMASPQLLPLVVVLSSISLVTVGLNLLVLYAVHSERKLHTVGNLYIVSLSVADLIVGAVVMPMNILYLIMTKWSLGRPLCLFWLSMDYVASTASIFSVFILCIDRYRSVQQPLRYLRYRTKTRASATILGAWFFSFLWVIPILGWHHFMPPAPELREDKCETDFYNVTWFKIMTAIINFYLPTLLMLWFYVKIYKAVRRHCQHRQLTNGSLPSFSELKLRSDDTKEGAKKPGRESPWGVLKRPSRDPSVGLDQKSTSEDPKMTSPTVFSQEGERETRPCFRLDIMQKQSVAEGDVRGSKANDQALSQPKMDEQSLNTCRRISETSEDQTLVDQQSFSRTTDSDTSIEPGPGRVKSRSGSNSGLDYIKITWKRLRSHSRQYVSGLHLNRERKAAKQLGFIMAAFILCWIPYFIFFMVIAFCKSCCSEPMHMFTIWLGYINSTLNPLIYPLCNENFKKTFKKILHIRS
Description: In vitro binding affinity towards Histamine H1 receptor of rat frontal cortex homogenate by using radioligand [3H]pyrilamine

[10] = molecular target: T4, Muscarinic acetylcholine receptor M1 (Rattus norvegicus, UniProt P08482); assay: biochemical; type: tissue-based, Frontal cortex
T4 sequence (P08482 whole entry): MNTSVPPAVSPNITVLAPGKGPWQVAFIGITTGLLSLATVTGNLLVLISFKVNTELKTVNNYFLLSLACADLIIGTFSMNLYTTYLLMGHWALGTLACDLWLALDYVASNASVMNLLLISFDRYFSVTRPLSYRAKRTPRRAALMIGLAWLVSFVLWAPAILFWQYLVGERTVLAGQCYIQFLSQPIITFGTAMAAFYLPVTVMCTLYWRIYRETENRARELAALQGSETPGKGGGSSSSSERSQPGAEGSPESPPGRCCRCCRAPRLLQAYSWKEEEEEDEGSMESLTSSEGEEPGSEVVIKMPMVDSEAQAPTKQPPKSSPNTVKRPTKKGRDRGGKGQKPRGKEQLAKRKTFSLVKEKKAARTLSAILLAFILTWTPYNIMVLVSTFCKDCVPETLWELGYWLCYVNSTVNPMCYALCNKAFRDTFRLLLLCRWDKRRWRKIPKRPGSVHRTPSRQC
Description: In vitro binding affinity towards M1 receptor of rat frontal cortex homogenate by using radioligand [3H]QNB

[11] = molecular target: T5, Adrenergic receptor alpha-1 (Rattus norvegicus, UniProt P15823+P23944+P43140); type: tissue-based, Frontal cortex
T5 sequence (P15823 whole entry): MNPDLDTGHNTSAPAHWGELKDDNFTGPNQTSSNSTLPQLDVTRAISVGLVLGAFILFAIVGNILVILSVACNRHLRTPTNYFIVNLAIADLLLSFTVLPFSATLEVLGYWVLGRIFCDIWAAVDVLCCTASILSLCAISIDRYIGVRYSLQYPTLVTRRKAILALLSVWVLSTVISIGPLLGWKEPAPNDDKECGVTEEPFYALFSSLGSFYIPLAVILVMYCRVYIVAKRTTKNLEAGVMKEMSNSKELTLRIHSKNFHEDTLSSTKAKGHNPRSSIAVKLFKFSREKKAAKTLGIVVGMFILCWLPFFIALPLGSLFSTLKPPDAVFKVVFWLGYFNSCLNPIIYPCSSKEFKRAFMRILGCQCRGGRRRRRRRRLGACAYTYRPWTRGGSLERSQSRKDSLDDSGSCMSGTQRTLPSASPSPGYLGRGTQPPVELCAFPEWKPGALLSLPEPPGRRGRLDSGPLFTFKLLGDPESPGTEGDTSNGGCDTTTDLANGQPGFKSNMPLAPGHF
T5 sequence (P23944 whole entry): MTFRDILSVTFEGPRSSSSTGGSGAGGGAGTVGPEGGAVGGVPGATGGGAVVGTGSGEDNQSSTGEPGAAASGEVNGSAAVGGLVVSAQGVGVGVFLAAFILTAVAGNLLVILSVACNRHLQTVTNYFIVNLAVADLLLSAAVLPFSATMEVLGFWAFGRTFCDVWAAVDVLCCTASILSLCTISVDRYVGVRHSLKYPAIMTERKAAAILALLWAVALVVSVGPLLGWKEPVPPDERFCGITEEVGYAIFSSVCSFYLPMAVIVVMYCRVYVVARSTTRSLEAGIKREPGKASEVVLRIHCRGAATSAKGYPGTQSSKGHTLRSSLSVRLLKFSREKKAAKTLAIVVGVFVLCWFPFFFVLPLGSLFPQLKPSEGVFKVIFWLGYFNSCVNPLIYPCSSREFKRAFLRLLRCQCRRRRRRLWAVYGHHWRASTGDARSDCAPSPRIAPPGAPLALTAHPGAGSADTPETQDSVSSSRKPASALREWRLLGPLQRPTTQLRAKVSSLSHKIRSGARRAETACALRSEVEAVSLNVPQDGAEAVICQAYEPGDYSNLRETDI
T5 sequence (P43140 whole entry): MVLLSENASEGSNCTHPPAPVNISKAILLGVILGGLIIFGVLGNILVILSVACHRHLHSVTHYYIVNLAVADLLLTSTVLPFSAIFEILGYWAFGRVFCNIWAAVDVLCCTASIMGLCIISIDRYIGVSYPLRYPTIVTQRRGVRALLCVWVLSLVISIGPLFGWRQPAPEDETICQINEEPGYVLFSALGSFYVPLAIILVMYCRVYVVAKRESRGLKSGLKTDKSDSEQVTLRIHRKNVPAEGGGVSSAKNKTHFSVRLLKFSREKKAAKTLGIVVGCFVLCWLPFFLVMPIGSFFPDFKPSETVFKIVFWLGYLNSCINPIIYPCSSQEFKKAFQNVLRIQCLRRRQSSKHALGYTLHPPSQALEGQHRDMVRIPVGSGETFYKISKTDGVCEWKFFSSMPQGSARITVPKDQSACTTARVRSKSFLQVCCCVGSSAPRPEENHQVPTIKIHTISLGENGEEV
Description: In vitro binding affinity towards alpha-1 adrenergic receptor in rat frontal cortex homogenate using of [3H]prazosin as radioligand

Rattus norvegicus [12] = organism: Rattus norvegicus; assay: animal or person; type: functional; conditions: po; remark: listed apart in the source
Description: In vivo inhibition against conditioned avoidance response in rats after oral administration

Mus musculus [13] = organism: Mus musculus; assay: animal or person; type: functional; conditions: po; remark: listed apart in the source
Description: In vivo inhibitory activity tested in apomorphine climbing mice after oral administration

[14] = molecular target: T6, Adrenergic receptor alpha-2 (Rattus norvegicus, UniProt P22086+P19328+P22909); type: tissue-based, Frontal cortex
T6 sequence (P22086 whole entry): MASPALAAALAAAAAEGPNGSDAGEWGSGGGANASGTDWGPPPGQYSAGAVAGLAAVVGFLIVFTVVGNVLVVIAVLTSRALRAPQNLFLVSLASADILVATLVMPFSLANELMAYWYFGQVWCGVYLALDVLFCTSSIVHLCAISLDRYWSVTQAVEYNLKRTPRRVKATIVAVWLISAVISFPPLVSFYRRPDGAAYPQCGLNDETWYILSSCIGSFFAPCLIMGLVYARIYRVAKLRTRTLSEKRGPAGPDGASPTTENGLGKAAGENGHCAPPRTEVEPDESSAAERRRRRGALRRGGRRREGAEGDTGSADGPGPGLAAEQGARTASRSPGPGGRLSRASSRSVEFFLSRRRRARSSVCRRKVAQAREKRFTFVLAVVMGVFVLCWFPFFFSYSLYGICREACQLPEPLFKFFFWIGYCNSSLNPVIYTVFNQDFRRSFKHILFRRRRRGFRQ
T6 sequence (P19328 whole entry): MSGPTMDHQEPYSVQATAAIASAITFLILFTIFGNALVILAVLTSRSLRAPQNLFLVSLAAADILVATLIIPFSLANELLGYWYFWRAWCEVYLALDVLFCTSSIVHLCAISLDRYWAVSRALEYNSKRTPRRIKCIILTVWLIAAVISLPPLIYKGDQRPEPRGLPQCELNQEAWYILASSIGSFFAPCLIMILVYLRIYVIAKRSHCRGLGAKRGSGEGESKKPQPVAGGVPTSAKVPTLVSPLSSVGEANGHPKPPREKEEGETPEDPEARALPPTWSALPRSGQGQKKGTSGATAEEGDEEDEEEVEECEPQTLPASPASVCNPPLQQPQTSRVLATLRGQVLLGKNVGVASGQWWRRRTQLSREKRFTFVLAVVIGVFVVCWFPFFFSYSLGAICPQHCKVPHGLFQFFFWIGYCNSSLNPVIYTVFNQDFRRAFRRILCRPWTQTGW
T6 sequence (P22909 whole entry): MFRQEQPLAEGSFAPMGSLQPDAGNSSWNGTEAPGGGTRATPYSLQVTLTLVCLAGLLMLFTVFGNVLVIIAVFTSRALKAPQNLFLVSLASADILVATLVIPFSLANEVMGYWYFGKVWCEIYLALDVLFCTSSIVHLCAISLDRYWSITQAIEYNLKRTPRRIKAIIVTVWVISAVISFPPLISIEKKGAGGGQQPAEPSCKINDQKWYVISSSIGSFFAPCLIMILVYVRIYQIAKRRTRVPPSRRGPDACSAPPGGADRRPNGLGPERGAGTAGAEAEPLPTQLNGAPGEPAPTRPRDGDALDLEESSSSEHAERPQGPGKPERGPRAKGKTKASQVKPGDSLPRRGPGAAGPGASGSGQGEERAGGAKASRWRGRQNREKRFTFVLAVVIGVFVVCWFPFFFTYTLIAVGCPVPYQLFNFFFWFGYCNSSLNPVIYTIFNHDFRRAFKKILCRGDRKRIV
Description: In vitro binding affinity towards alpha-2 adrenergic receptor in rat frontal cortex homogenate using of [3H]clonidine as radioligand

Rattus norvegicus [15] = organism: Rattus norvegicus; type: functional
Description: Minimal inhibitory activity tested in rats after intraperitoneal administration

Rattus norvegicus [16] = organism: Rattus norvegicus; assay: animal or person; type: functional; conditions: po; remark: listed apart in the source
Description: In vivo inhibition of spontaneous locomotory activity tested in rats after oral administration

Rattus norvegicus [17] = organism: Rattus norvegicus; assay: animal or person; type: functional; conditions: po; remark: listed apart in the source
Description: In vivo inhibition against MK-801 induced hyperactivity in rats after oral administration

Rattus norvegicus [18] = organism: Rattus norvegicus; type: functional; conditions: dose 0.3 mg/kg, route intraperitoneal
Description: Inhibitory activity tested in rats after intraperitoneal administration at 0.3 mg/kg with saline

[19] = molecular target: 5-hydroxytryptamine receptor 2A (Homo sapiens, UniProt P28223)
Chain of 5-hydroxytryptamine receptor 2A (Homo sapiens, UniProt P28223) (P28223 whole entry): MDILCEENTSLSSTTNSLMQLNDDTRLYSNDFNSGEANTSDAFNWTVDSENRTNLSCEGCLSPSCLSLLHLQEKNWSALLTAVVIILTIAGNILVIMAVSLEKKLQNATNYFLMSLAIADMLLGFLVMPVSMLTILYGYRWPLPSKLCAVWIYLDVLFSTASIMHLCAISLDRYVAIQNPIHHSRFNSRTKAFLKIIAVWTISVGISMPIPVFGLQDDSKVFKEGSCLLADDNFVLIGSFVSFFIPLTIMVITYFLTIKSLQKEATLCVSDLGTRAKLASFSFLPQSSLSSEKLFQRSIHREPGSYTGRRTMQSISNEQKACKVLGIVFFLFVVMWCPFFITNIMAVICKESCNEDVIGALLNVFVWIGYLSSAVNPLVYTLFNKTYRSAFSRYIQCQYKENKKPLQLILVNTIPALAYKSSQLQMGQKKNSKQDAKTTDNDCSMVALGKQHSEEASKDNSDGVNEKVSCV
Description: In vitro binding affinity towards 5-hydroxytryptamine 2A receptor in human using [3H]ketanserin as radioligand

SMILES: COCc1ccc2n1CC(N1CCN(C)CC1)c1cc(Cl)ccc1S2 (configuration not stated)
Ki [1]: 0.405 µM
Ki (D(3) dopamine receptor [2]): 0.316 µM
Ki (D(1A) dopamine receptor [3]): > 1000 µM

SMILES: CN1CCN(C2Cn3c(CO)ccc3Sc3ccc(Cl)cc32)CC1 (configuration not stated)
Ki [4]: Not Active
Ki (D(3) dopamine receptor [5]): Not Active
Ki (D(1A) dopamine receptor [6]): Not Active
Ki (D(2) dopamine receptor): Not Active

SMILES: O=C1NCCN1CCN1CCN(C2Cn3cccc3Sc3ccc(Cl)cc32)CC1 (configuration not stated)
Ki [1]: 0.074 µM
Ki (D(3) dopamine receptor [2]): 0.066 µM
Ki (D(1A) dopamine receptor [3]): 1.62 µM

SMILES: CN1CCN([C@@H]2Cn3cccc3Sc3ccc(Cl)cc32)CC1
ED50 (Mus musculus [7]): inactive
ED50 (Rattus norvegicus [8]): 115 µmol/kg
ED50 (Mus musculus [9]): 14.3 µmol/kg

SMILES: CN1CCN(C2=Cn3c(/C=N/O)ccc3Sc3ccccc32)CC1
Ki [1]: 1.98 µM
Ki (D(3) dopamine receptor [2]): 4.26 µM
Ki (D(1A) dopamine receptor [6]): Not Active
Ki (D(2) dopamine receptor): Not Active

SMILES: CN1CCN(C2=C(C=O)n3c(C=O)ccc3Sc3ccccc32)CC1
Ki [1]: 2.3 µM
Ki (D(3) dopamine receptor [2]): > 1 µM
Ki (D(1A) dopamine receptor [6]): Not Active
Ki (D(2) dopamine receptor): Not Active

SMILES: CC(C)OCc1ccc2n1C=C(N1CCN(C)CC1)c1ccccc1S2
Ki [1]: 0.217 µM
Ki (D(3) dopamine receptor [2]): 0.278 µM
Ki (D(1A) dopamine receptor [3]): 7.6 µM

More lines, main results first:

Ki (Histamine H1 receptor): 0.0027 µM
Ki [10]: 2.3 µM
Ki [11]: 0.0042 µM
SMILES: Cc1ccc2n1C=C(N1CCN(C)CC1)c1ccccc1S2

Ki [1]: 0.00083 µM
Ki (D(3) dopamine receptor [2]): 0.00025 µM
Ki (D(1A) dopamine receptor [3]): 0.0034 µM
SMILES: CN1CCN(C2=Cn3cccc3Sc3ccc(Br)cc32)CC1

Ki [1]: 0.019 µM
Ki (D(3) dopamine receptor [2]): 0.113 µM
Ki (D(1A) dopamine receptor [3]): 1.74 µM
SMILES: CN1CCN(C2=Cn3c(CO)ccc3Sc3ccccc32)CC1

Ki [1]: 0.02 µM
Ki (D(3) dopamine receptor [2]): 0.102 µM
Ki (D(1A) dopamine receptor [3]): 4.28 µM
SMILES: CN1CCN(C2=Cn3c(C=O)ccc3Sc3ccccc32)CC1

Ki [1]: 0.0043 µM
Ki (D(3) dopamine receptor [2]): 0.0043 µM
Ki (D(1A) dopamine receptor [3]): 0.00587 µM
SMILES: CN1CCCN(C2=Cn3cccc3Sc3ccc(Cl)cc32)CC1

Ki (Histamine H1 receptor): 0.0027 µM
Ki [10]: 2.07 µM
Ki [11]: 0.0005 µM
Ki [14]: 1.02 µM
Ki [19]: 0.0011 µM
SMILES: CN1CCN(C2=Cn3cccc3Sc3ccccc32)CC1
ED50 (Rattus norvegicus [12]): 1.1 mg/kg and 3.7 µmol/kg
ED50 (Rattus norvegicus [8]): > 100 mg/kg and > 336 µmol/kg
ED50 (Mus musculus [13]): 1.64 mg/kg and 5.5 µmol/kg
Min ID (Rattus norvegicus [15]): 1 µM/kg
ED50 (Rattus norvegicus [16]): 0.51 mg/kg and 1.71 µmol/kg
ED50 (Rattus norvegicus [17]): 1.1 mg/kg and 3.69 µmol/kg
Correct responses (Rattus norvegicus [18]): 80.1% and 81.5%
ED50 (Mus musculus [9]): 1.99 mg/kg and 6.7 µmol/kg
